Source: patent publication US11389415B2, “Methods of regulating cannabinoid receptor activity-related disorders and diseases” (The United States of America as represented by the …, priority 2012, dated 2022)

System: rat C6 glioma xenografts
Assay: Gene expression profiling (microarray, GO term and PAGE gene set analysis) in rat C6 glioma xenografts
Format: in vivo, mouse
Settings: for Z score, GO0000775 Chromosome pericentric region / Z score, GO0004527 Exonuclease activity / Z score, GO0005634 Nucleus / Z score, GO0006260 DNA replication / Z score, GO0006270 DNA replication initiation / Z score, GO0007049 Cell cycle / Z score, GO0007051 Spindle organization and biogenesis / Z score, GO0007067 Mitosis / Z score, GO0048015 Phosphoinositide mediated signaling / Z score, GO0051301 Cell division: MNF_Crtl
Description: Analysis of gene expression in rat C6 glioma xenografts. Total RNA was isolated from rat C6 glioma xenografts harvested from vehicle and MNF-treated mice (n=3 per group, cohort 1). This analysis was repeated in a second cohort of animals (n=3 per group, cohort 2). Total cellular RNA was extracted using an RNeasy plus mini kit (QIAGEN, Valencia, Calif.), and its quality was assessed using an Agilent BioAnalyzer using RNA 6000 Nano Chips (Agilent Technologies, Santa Clara, Calif.). Transcriptional profiling was determined using Illumina Sentrix BeadChips (Illumina, San Diego, Calif.). Total RNA was used to generate biotin-labeled cRNA with the Illumina TotalPrep RNA Amplification Kit. In short, 0.5 ug of total RNA was first converted into single-stranded cDNA with reverse transcriptase using an oligo-dT primer containing the T7 RNA polymerase promoter site and then copied to produce double-stranded cDNA molecules. The double-stranded cDNA was cleaned and concentrated with the supplied columns and used in an overnight in-vitro transcription reaction where single-stranded RNA (cRNA) was generated incorporating biotin-16-UTP. A total of 0.75 μg of biotin-labeled cRNA was hybridized at 58° C. for 16 hours to Illumina's Sentrix Rat Ref-12 Expression BeadChips. Each BeadChip has ˜22,000 well-annotated RefSeq transcripts with approximately 30-fold redundancy. The arrays were washed, blocked and the labeled cRNA was detected by staining with streptavidin-Cy3. Hybridized arrays were scanned using an Illumina BeadStation 500× Genetic Analysis Systems scanner and the image data extracted using Illumina's GenomeStudio software, version 1.6.1. For statistical analysis, the expression data were filtered to include only probes with a consistent signal on each chip and an Illumina detecton p value <0.02.
Correlation analysis, sample clustering analysis and principal component analysis was performed to identify/exclude any possible outliers. The resulting dataset was next analyzed with DIANE 6.0, a spreadsheet-based microarray analysis program using value statistics for Z-Score reliability below 0.05; and mean background-corrected signal intensity greater than zero.
Gene set enrichment analysis use gene expression values or gene expression change values for all of the genes in the microarray. Parametric analysis of gene set enrichment (PAGE) was used using the WEB-PAGE GSA tool for gene set analysis. Gene Sets include the MSIG database, Gene Ontology Database, GAD human disease and mouse phenotype gene sets were used to explore functional level changes. Gene-gene interaction was also analyzed using the INGENUITY® Pathway Analysis (IPA) system (INGENUITY® Systems).

[1] = Table 9, gene sets influenced by MNF treatment

`COc1ccc(C[C@@H](C)NC[C@H](O)c2cc(O)cc(O)c2)c2ccccc12` [(R,R′)-MNF, (R,R′)-4′-methoxy-1-naphthylfenoterol] was tested, and the “Z score, SHEPARD_GENES_COMMON_BW_CB_MO” value (MNF_Control, cohort 2) was −4.3867, the “Z score, STEMCELL_NEURAL_UP” value (MNF_Control, cohort 2) was −5.0064 and the “Z score, TARTE_MATURE_PC” value (MNF_Control, cohort 2) was 5.3293. For the same compound, the “Z score, TARTE_PLASMA_BLASTIC” value (MNF_Control, cohort 2) was −6.7905, the “Z score, VERNELL_PRB_CLSTR1” value (MNF_Control, cohort 2) was −6.5636 and the “Z score, YU_CMYC_UP” value (MNF_Control, cohort 2) was −7.3723. The “Z score, ZHAN_MM_CD138_PR_VS_REST” value (MNF_Control, cohort 2) was −9.0080, the “Z score, ADIP_DIFF_CLUSTERS” value (MNF_Control, combined cohorts) was −7.9684 and the “Z score, ATRBRCAPATHWAY” value (MNF_Control, combined cohorts) was −3.4407. The “Z score, BRCA_PROGNOSIS_NEG” value (MNF_Control, combined cohorts) was −6.5976, the “Z score, BRENTANI_REPAIR” value (MNF_Control, combined cohorts) was −4.2370 and the “Z score, CANCER_UNDIFFERENTIATED_META_UP” value (MNF_Control, combined cohorts) was −7.7981. For the same compound, the “Z score, CELL_CYCLE” value (MNF_Control, combined cohorts) was −8.6730, the “Z score, CELL_CYCLE_KEGG” value (MNF_Control, combined cohorts) was −7.8764 and the “Z score, CMV_IE86_UP” value (MNF_Control, combined cohorts) was −8.5032. The “Z score, CROONQUEST_IL6_STARVE_UP” value (MNF_Control, combined cohorts) was −10.7172, the “Z score, CROONQUIST_IL6_RAS_DN” value (MNF_Control, combined cohorts) was −9.7453 and the “Z score, DAC_FIBRO_DN” value (MNF_Control, combined cohorts) was −6.4794. For the same compound, the “Z score, DNA_REPLICATION_REACTOME” value (MNF_Control, combined cohorts) was −7.3185, the “Z score, DOX_RESIST_GASTRIC_UP” value (MNF_Control, combined cohorts) was −10.1840 and the “Z score, E2F1_DNA_UP” value (MNF_Control, combined cohorts) was −5.4288. For the same compound, the “Z score, GAY_YY1_DN” value (MNF_Control, combined cohorts) was −7.4972, the “Z score, GOLDRATH_HP” value (MNF_Control, combined cohorts) was −3.4750 and the “Z score, HDACI_COLON_BUT12 HRS_UP” value (MNF_Control, combined cohorts) was 5.8481. The “Z score, HDACI_COLON_BUT16HRS_UP” value (MNF_Control, combined cohorts) was 4.8024, the “Z score, HDACI_COLON_BUT24HRS_UP” value (MNF_Control, combined cohorts) was 4.4492 and the “Z score, HDACI_COLON_TSABUT_UP” value (MNF_Control, combined cohorts) was 5.2313. The “Z score, HIPPOCAMPUS_DEVELOPMENT_POSTNATAL” value (MNF_Control, combined cohorts) was 11.4209, the “Z score, HOFFMANN_BIVSBII_BI_TABLE2” value (MNF_Control, combined cohorts) was −8.5773 and the “Z score, HYPOPHYSECTOMY_RAT_DN” value (MNF_Control, combined cohorts) was 5.3951. The “Z score, IDX_TSA_UP_CLUSTER3” value (MNF_Control, combined cohorts) was −11.3388, the “Z score, IRITANI_ADPROX_LYMPH” value (MNF_Control, combined cohorts) was −5.7142 and the “Z score, KAMMINGA_EZH2_TARGETS” value (MNF_Control, combined cohorts) was −8.8163. For the same compound, the “Z score, KENNY_WNT_UP” value (MNF_Control, combined cohorts) was −6.9481, the “Z score, LAMB_CYCLIN_D3_GLOCUS” value (MNF_Control, combined cohorts) was −5.0503 and the “Z score, LEE_TCELLS2_UP” value (MNF_Control, combined cohorts) was −6.9464. For the same compound, the “Z score, LEE_TCELLS3_UP” value (MNF_Control, combined cohorts) was −10.3427, the “Z score, LI_FETAL_VS_WT_KIDNEY_DN” value (MNF_Control, combined cohorts) was −10.4609 and the “Z score, MANALO_HYPOXIA_DN” value (MNF_Control, combined cohorts) was −6.7155. For the same compound, the “Z score, MIDDLEAGE_DN” value (MNF_Control, combined cohorts) was −8.2457, the “Z score, MOREAUX_TACI_HI_IN_PPC_UP” value (MNF_Control, combined cohorts) was −4.9180 and the “Z score, MOREAUX_TACI_HI_VS_LOW_DN” value (MNF_Control, combined cohorts) was −5.1872. For the same compound, the “Z score, OLDAGE_DN” value (MNF_Control, combined cohorts) was −8.1220, the “Z score, P21_P53_ANY_DN” value (MNF_Control, combined cohorts) was −8.8530 and the “Z score, PEART_HISTONE_DN” value (MNF_Control, combined cohorts) was −5.7817. For the same compound, the “Z score, PODI_KO_UP” value (MNF_Control, combined cohorts) was −5.1416, the “Z score, PRMT5_KD_UP” value (MNF_Control, combined cohorts) was −8.9362 and the “Z score, REN_E2F1_TARGETS” value (MNF_Control, combined cohorts) was −4.4393. For the same compound, the “Z score, SASAKI_ATL_UP” value (MNF_Control, combined cohorts) was −7.2897, the “Z score, SASAKI_TCELL_LYMPHOMA_VS_CD4_UP” value (MNF_Control, combined cohorts) was −7.2897 and the “Z score, SERUM_FIBROBLAST_CELLCYCLE” value (MNF_Control, combined cohorts) was −12.2668. For the same compound, the “Z score, SHEPARD_BMYB_MORPHOLINO_DN” value (MNF_Control, combined cohorts) was −6.0639, the “Z score, SHEPARD_CRASH_AND_BURN_MUT_VS_WT_DN” value (MNF_Control, combined cohorts) was −5.5788 and the “Z score, SHEPARD_GENES_COMMON_BW_CB_MO” value (MNF_Control, combined cohorts) was −5.7440. The “Z score, STEMCELL_NEURAL_UP” value (MNF_Control, combined cohorts) was −7.2833, the “Z score, TARTE_MATURE_PC” value (MNF_Control, combined cohorts) was 6.8026 and the “Z score, TARTE_PLASMA_BLASTIC” value (MNF_Control, combined cohorts) was −8.3308. For the same compound, the “Z score, VERNELL_PRB_CLSTR1” value (MNF_Control, combined cohorts) was −7.4144, the “Z score, YU_CMYC_UP” value (MNF_Control, combined cohorts) was −8.4501 and the “Z score, ZHAN_MM_CD138_PR_VS_REST” value (MNF_Control, combined cohorts) was −10.7002. For the same compound, the “Z score, GO0000775 Chromosome pericentric region” value (Combined) was −6.3081, the “Z score, GO0004527 Exonuclease activity” value (Combined) was −5.8765 and the “Z score, GO0005634 Nucleus” value (Combined) was −9.4291. For the same compound, the “Z score, GO0006260 DNA replication” value (Combined) was −7.3157, the “Z score, GO0006270 DNA replication initiation” value (Combined) was −5.0248 and the “Z score, GO0007049 Cell cycle” value (Combined) was −9.3510. The “Z score, GO0007051 Spindle organization and biogenesis” value (Combined) was −6.7039, the “Z score, GO0007067 Mitosis” value (Combined) was −10.1574 and the “Z score, GO0048015 Phosphoinositide mediated signaling” value (Combined) was −5.2545. For the same compound, the “Z score, GO0051301 Cell division” value (Combined) was −10.1585, the “Z score, GO0000775 Chromosome pericentric region” value (Set 1) was −6.7644 and the “Z score, GO0004527 Exonuclease activity” value (Set 1) was −2.5829. For the same compound, the “Z score, GO0005634 Nucleus” value (Set 1) was −2.1680, the “Z score, GO0006260 DNA replication” value (Set 1) was −4.7695 and the “Z score, GO0006270 DNA replication initiation” value (Set 1) was −4.0283. The “Z score, GO0007049 Cell cycle” value (Set 1) was −5.1361, the “Z score, GO0007051 Spindle organization and biogenesis” value (Set 1) was −4.6166 and the “Z score, GO0007067 Mitosis” value (Set 1) was −7.5266. For the same compound, the “Z score, GO0048015 Phosphoinositide mediated signaling” value (Set 1) was −4.2781, the “Z score, GO0051301 Cell division” value (Set 1) was −6.9059 and the “Z score, GO0000775 Chromosome pericentric region” value (Set 2) was −3.5296. The “Z score, GO0004527 Exonuclease activity” value (Set 2) was −5.4622, the “Z score, GO0005634 Nucleus” value (Set 2) was −9.9454 and the “Z score, GO0006260 DNA replication” value (Set 2) was −6.0446. For the same compound, the “Z score, GO0006270 DNA replication initiation” value (Set 2) was −3.7775, the “Z score, GO0007049 Cell cycle” value (Set 2) was −8.0162 and the “Z score, GO0007051 Spindle organization and biogenesis” value (Set 2) was −5.2288. For the same compound, the “Z score, GO0007067 Mitosis” value (Set 2) was −7.6563, the “Z score, GO0048015 Phosphoinositide mediated signaling” value (Set 2) was −3.5441 and the “Z score, GO0051301 Cell division” value (Set 2) was −8.0673. For the same compound, the “Z score, CELL_CYCLE” value [1] was −7.4222, the “Z score, CROONQUIST_IL6_STARVE_UP” value [1] was −9.0059 and the “Z score, HDACI_COLON_BUT12 HRS_UP” value [1] was 3.6676. For the same compound, the “Z score, HIPPOCAMPUS_DEVELOPMENT_POSTNATAL” value [1] was 10.3511, the “Z score, HYPOPHYSECTOMY_RAT_DN” value [1] was 3.9294 and the “Z score, IDX_TSA_UP_CLUSTER3” value [1] was −10.1593. For the same compound, the “Z score, P21_P53_ANY_DN” value [1] was −7.4300, the “Z score, SERUM_FIBROBLAST_CELLCYCLE” value [1] was −10.6997 and the “Z score, TARTE_MATURE_PC” value [1] was 5.3293.
